Test results taken from patent US20250115590A1, “MATRIX METALLOPROTEINASE (MMP) INHIBITORS AND METHODS OF USE THEREOF” (Foresee Pharmaceuticals USA, Inc., priority 2018, published 2025).
Like-named read-outs stand apart in the source and are kept apart here.

Key:
Format in all cases: biochemical
recombinant human MMP-10 = recombinant human MMP-10 (Homo sapiens (Human), UniProt P09238); assay: MMP selectivity assay, MMP-10; details: Table 2 selectivity profile; read-out: MMP-10 Activity (IC50 class)
Sequence of recombinant human MMP-10 (P09238 99-476): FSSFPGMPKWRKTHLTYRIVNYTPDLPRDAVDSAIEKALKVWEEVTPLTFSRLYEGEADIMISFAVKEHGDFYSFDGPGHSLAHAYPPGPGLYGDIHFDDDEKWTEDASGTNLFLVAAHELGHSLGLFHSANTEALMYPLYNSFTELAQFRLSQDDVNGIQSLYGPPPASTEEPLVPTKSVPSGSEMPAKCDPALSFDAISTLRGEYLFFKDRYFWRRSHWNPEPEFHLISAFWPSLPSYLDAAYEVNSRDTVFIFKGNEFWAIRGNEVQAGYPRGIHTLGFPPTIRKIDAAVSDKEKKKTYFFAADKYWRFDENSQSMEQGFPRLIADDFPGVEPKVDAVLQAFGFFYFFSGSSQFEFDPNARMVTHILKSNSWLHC
Procedure: (§1) The inhibitory effect of compounds on the rate of cleaving fluorogenic MMP substrate (Enzo, BML-P128) by recombinant human MMP-12 catalytic domain (Enzo, BML-SE138) was carried out by methods known in the art. Briefly, to each well of a 96-well black opaque plate, all the reagents were sequentially added by pipetting, and the final reaction contained 4 nM of recombinant human MMP-12 catalytic domain, […] of fluorogenic MMP substrate, and various concentrations (0.15 nM to 10,000 nM) of tested compound dilutions in HEPES buffer (pH 7.5) containing 10 mM of CaCl2, 0.01% Brij® 35 (polyoxyethylene (23) lauryl ether), and 0.1 mg/ml of BSA.
(§2) The enzyme and compounds were pre-incubated on a shaker to mix in wells. After an hour of mixing, fluorogenic substrate was added to each well. Reaction without enzyme was used as a blank control in the plate. The plate was then fed into a plate reader to measure fluorescence intensity at Excitation/Emission wavelengths of 340 nm/440 nm every 10 mins for at least 1 hour at 37° C. The IC50 of each compound in MMP-12 inhibition was determined by using a readout obtained at time point 30 minutes.
(§3) The MMP selectivity assay was performed by using other recombinant human MMPs, including MMP-1, MMP-2, MMP-3, MMP-7, MMP-8, MMP-9, MMP-10, MMP-13, and MMP-14. The IC50 of the compounds for the other recombinant human MMPs was determined as described above in Example 1, and are shown in Table 2.

[1] = target: recombinant human MMP-12 catalytic domain (Homo sapiens (Human), UniProt P39900); assay: MMP-12 inhibitory assay (fluorogenic substrate cleavage)
Sequence of recombinant human MMP-12 catalytic domain (P39900 106-268): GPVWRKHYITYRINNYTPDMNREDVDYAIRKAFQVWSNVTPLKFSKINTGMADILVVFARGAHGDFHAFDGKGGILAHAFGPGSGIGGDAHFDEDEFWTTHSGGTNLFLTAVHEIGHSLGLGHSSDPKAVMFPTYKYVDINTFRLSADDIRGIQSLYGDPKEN
Procedure: as §1, §2

recombinant human MMP-9 = recombinant human MMP-9 (Homo sapiens (Human), UniProt P14780); assay: MMP selectivity assay, MMP-9; details: Table 2 selectivity profile; read-out: MMP-9 Activity (IC50 class)
Sequence of recombinant human MMP-9 (P14780 94-707): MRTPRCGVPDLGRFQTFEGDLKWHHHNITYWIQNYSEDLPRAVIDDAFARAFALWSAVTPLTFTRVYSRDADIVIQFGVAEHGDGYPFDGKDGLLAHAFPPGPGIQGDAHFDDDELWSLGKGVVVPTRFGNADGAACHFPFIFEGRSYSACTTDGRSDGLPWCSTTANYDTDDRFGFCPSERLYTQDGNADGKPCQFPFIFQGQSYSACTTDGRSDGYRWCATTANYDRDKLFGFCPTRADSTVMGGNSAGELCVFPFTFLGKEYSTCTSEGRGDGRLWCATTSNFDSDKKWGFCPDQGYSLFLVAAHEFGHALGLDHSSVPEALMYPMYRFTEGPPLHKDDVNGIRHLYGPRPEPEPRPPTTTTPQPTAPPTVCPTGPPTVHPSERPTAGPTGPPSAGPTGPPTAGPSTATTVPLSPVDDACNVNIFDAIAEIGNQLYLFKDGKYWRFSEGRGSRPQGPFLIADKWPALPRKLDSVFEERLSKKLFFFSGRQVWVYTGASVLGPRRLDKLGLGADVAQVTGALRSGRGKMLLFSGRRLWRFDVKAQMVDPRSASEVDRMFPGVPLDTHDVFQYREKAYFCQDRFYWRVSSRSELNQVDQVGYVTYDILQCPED
Procedure: as §1, §2, §3

recombinant human MMP-3 = recombinant human MMP-3 (Homo sapiens (Human), UniProt P08254); assay: MMP selectivity assay, MMP-3; details: Table 2 selectivity profile; read-out: MMP-3 Activity (IC50 class)
Sequence of recombinant human MMP-3 (P08254 100-477): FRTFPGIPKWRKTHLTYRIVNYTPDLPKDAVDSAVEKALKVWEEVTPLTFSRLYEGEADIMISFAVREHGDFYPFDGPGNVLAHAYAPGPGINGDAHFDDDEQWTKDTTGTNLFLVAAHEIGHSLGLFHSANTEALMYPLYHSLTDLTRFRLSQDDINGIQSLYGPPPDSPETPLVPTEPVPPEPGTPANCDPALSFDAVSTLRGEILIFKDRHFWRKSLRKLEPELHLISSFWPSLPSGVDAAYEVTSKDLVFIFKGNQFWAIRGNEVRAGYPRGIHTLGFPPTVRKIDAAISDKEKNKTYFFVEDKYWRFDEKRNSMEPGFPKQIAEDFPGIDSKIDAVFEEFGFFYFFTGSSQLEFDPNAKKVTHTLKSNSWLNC
Procedure: as §1, §2, §3

recombinant human MMP-2 = recombinant human MMP-2 (Homo sapiens (Human), UniProt P08253); assay: MMP selectivity assay, MMP-2; details: Table 2 selectivity profile; read-out: MMP-2 Activity (IC50 class)
Sequence of recombinant human MMP-2 (P08253 110-660): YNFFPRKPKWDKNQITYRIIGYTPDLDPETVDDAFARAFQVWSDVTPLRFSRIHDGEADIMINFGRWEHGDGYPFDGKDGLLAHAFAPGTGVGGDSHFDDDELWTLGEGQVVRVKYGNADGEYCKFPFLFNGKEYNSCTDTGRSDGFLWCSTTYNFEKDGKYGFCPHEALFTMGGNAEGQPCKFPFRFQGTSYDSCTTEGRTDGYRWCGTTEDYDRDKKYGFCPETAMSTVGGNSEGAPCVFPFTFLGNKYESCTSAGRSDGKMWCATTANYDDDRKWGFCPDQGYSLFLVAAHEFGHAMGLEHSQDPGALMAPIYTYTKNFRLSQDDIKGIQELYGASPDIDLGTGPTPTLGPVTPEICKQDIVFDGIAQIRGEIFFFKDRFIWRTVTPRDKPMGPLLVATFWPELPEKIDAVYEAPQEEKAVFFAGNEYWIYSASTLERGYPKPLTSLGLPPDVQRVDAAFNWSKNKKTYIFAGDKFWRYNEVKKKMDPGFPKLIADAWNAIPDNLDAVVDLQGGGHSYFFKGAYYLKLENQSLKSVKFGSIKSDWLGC
Procedure: as §1, §2, §3

recombinant human MMP-8 = recombinant human MMP-8 (Homo sapiens (Human), UniProt P22894); assay: MMP selectivity assay, MMP-8; details: Table 2 selectivity profile; read-out: MMP-8 Activity (IC50 class)
Sequence of recombinant human MMP-8 (P22894 101-467): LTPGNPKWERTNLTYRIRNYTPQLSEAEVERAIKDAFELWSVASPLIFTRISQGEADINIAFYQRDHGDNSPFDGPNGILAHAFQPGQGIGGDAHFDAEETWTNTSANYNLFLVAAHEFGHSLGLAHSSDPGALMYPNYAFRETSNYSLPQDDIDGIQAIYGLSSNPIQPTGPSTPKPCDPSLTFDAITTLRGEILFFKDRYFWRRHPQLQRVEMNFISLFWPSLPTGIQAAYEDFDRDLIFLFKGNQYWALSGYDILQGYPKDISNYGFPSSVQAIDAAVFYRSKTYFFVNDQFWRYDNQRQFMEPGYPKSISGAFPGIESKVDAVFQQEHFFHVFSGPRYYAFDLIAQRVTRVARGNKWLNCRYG
Procedure: as §1, §2, §3

recombinant human MMP-13 = recombinant human MMP-13 (Homo sapiens (Human), UniProt P45452); assay: MMP selectivity assay, MMP-13; details: Table 2 selectivity profile; read-out: MMP-13 Activity (IC50 class)
Procedure: as §1, §2, §3

recombinant human MMP-14 = recombinant human MMP-14 (Homo sapiens (Human), UniProt P50281); assay: MMP selectivity assay, MMP-14; details: Table 2 selectivity profile; read-out: MMP-14 Activity (IC50 class)
Procedure: as §1, §2, §3

recombinant human MMP-7 = recombinant human MMP-7 (Homo sapiens (Human), UniProt P09237); assay: MMP selectivity assay, MMP-7; details: Table 2 selectivity profile; read-out: MMP-7 Activity (IC50 class)
Sequence of recombinant human MMP-7 (P09237 95-267): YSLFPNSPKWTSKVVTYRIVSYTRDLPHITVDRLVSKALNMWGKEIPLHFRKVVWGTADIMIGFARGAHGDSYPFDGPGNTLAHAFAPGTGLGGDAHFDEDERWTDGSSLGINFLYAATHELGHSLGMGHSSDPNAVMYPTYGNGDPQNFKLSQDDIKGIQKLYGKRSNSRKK
Procedure: as §1
as §2, with “Reaction without enzyme was used as a blank control in the plate.” left out
as §3

[2] = Table 2 selectivity profile, read-out: MMP-12 Activity (IC50 class)
[3] = readout at 30 minutes, 37° C., pH 7.5, Table 1, read-out: MMP-12 IC50

IC50 (recombinant human MMP-10)	IC50 [1, 2]	IC50 [1, 3]	IC50 (recombinant human MMP-9)	IC50 (recombinant human MMP-2)	Structure (SMILES)	other results
> 1 µM	< 0.01 µM	< 0.01 µM	> 1 µM		Cc1cc(COc2ccc(Sc3ncoc3C3NC(=O)NC3=O)cc2)ccn1 (stereo not shown) [OC-7]	IC50 (recombinant human MMP-3): > 1 µM
		< 0.01 µM			O=C1NC(=O)C(c2ccncc2Sc2ccc(OCc3cccc(O)c3)cc2)N1 (stereo not shown) [PC-15]	
		> 1 µM			O=C1NC(=O)C(c2cnccc2Sc2ccc(OCc3ccnc(C(=O)O)c3)cc2)N1 (stereo not shown) [PC-20]	
		> 1 µM			Cc1cc(COc2ccc(Sc3ocnc3C3NC(=O)NC3=O)cc2)ccn1 (stereo not shown) [OC-11]	
> 1 µM	< 0.01 µM	< 0.01 µM	> 1 µM	> 1 µM	Cc1cc(COc2ccc(Sc3ccncc3C3NC(=O)NC3=O)cc2C)ccn1 (stereo not shown) [PC-48]	IC50 (recombinant human MMP-8): > 1 µM; IC50 (recombinant human MMP-3): > 1 µM
		> 1 µM			Cc1cc(COc2ccc(Sc3ccncc3C3(C)C(=O)N(C)C(=O)N3C)cc2)ccn1 (stereo not shown) [PC-46]	
		< 0.01 µM			Cc1cc(COc2ccc(Sc3cnccc3C3NC(=O)NC3=O)cc2)ccn1 (stereo not shown) [PC-18]	
		< 0.01 µM			O=C1NC(=O)C(c2sccc2Sc2ccc(OCc3ccc(CO)cc3)cc2)N1 (stereo not shown) [TC6]	
	< 0.01 µM	< 0.01 µM	> 1 µM	> 1 µM	O=C1NC(=O)C(c2cnccc2Sc2ccc(OCc3cccc(O)c3)cc2)N1 (stereo not shown) [PC-10]	IC50 (recombinant human MMP-8): > 1 µM; IC50 (recombinant human MMP-13): > 1 µM; IC50 (recombinant human MMP-3): > 1 µM
		< 0.01 µM			CCC1(c2cnccc2Sc2ccc(OCc3ccnc(C)c3)cc2)NC(=O)NC1=O (stereo not shown) [PC-63]	
		> 1 µM			Cc1cc(COc2ccc(Sc3ccncc3C3C(=O)N(C)C(=O)N3C)cc2)ccn1 (stereo not shown) [PC-54]	
> 1 µM	< 0.01 µM	< 0.01 µM	> 1 µM	> 1 µM	O=C1NC(=O)C(c2ccncc2Sc2ccc(OCc3cccc(CO)c3)cc2)N1 (stereo not shown) [PC-13]	IC50 (recombinant human MMP-8): > 1 µM; IC50 (recombinant human MMP-13): > 1 µM
> 1 µM	< 0.01 µM	< 0.01 µM	> 1 µM	> 1 µM	NC(=O)c1cccc(COc2ccc(Sc3ccncc3C3NC(=O)NC3=O)cc2)c1 (stereo not shown) [PC-28]	IC50 (recombinant human MMP-14): > 1 µM; IC50 (recombinant human MMP-3): > 1 µM
> 1 µM	< 0.01 µM	< 0.01 µM	> 1 µM		Cc1cc(COc2ccc(Sc3cnn(C)c3C3NC(=O)NC3=O)cc2)ccn1 (stereo not shown) [OC-12]	IC50 (recombinant human MMP-14): > 1 µM; IC50 (recombinant human MMP-3): > 1 µM
		> 1 µM			NC(=O)c1ccncc1COc1ccc(Sc2ccncc2C2NC(=O)NC2=O)cc1 (stereo not shown) [PC-38]	
		> 1 µM			Cc1cccc(OCc2ccc(Sc3ccncc3C3NC(=O)NC3=O)cc2)c1 (stereo not shown) [PC-43]	

IC50 (recombinant human MMP-10)	IC50 [1, 2]	IC50 [1, 3]	IC50 (recombinant human MMP-9)	IC50 (recombinant human MMP-2)	Structure (SMILES)	other results
		0.1 to 1 µM			NC(=O)c1cc(COc2ccc(Sc3cnccc3C3NC(=O)NC3=O)cc2)ccn1 (stereo not shown) [PC-59]	
> 1 µM	< 0.01 µM	< 0.01 µM	> 1 µM	> 1 µM	O=C1NC(=O)C(c2sccc2Sc2ccc(OCc3cccc(CO)c3)cc2)N1 (stereo not shown) [TC4]	IC50 (recombinant human MMP-14): > 1 µM; IC50 (recombinant human MMP-13): > 1 µM
	< 0.01 µM	< 0.01 µM		> 1 µM	O=C1NC(=O)C(c2cnccc2Sc2ccc(OCc3cccc(CO)c3)cc2)N1 (stereo not shown) [PC-8]	IC50 (recombinant human MMP-13): > 1 µM; IC50 (recombinant human MMP-3): > 1 µM
	< 0.01 µM	< 0.01 µM			Cc1cc(COc2ccc(Sc3ccsc3C3NC(=O)NC3=O)cc2)ccn1 (stereo not shown) [TC8]	IC50 (recombinant human MMP-7): > 1 µM
		> 1 µM			O=C1NC(=O)C(c2cnccc2Sc2ccc(OCc3cncc(C(=O)O)c3)cc2)N1 (stereo not shown) [PC-21]	
		< 0.01 µM			CCC1(c2ccncc2Sc2ccc(OCc3ccnc(C)c3)cc2)NC(=O)NC1=O (stereo not shown) [PC-64]	
> 1 µM	< 0.01 µM	< 0.01 µM	> 1 µM		Cc1cc(COc2ccc(Sc3ncn(C)c3C3NC(=O)NC3=O)cc2)ccn1 (stereo not shown) [OC-13]	IC50 (recombinant human MMP-3): > 1 µM
> 1 µM	< 0.01 µM	< 0.01 µM	> 1 µM	> 1 µM	Cc1cc(COc2ccc(Sc3ccncc3C3NC(=O)NC3=O)c(Cl)c2)ccn1 (stereo not shown) [PC-51]	IC50 (recombinant human MMP-7): > 1 µM; IC50 (recombinant human MMP-14): > 1 µM; IC50 (recombinant human MMP-3): > 1 µM
		< 0.01 µM			O=C1NC(=O)C(c2sccc2Sc2ccc(OCc3cccc(O)c3)cc2)N1 (stereo not shown) [TC7]	
> 1 µM	< 0.01 µM	< 0.01 µM	> 1 µM	> 1 µM	O=C1NC(=O)C(c2ccncc2Sc2ccc(OCc3ccccc3CO)cc2)N1 (stereo not shown) [PC-12]	IC50 (recombinant human MMP-8): > 1 µM
		> 1 µM			O=C1NC(=O)C(c2ccncc2Sc2ccc(OCc3cncc(CO)c3)cc2)N1 (stereo not shown) [PC-47]	
		> 1 µM			O=C1NC(=O)C(c2ccncc2Sc2ccc(OCc3cncc(C(=O)O)c3)cc2)N1 (stereo not shown) [PC-24]	
		< 0.01 µM			O=C1NC(=O)C(c2cnccc2Sc2ccc(OCc3ccnc(CO)c3)cc2)N1 (stereo not shown) [PC-40]	
> 1 µM	< 0.01 µM	< 0.01 µM	> 1 µM	> 1 µM	CCC1(c2cnccc2Sc2ccc(OCc3cccc(C)c3)cc2)NC(=O)NC1=O (stereo not shown) [PC-22]	IC50 (recombinant human MMP-8): > 1 µM; IC50 (recombinant human MMP-14): > 1 µM
> 1 µM	< 0.01 µM	< 0.01 µM	> 1 µM		Cc1cc(COc2ccc(Sc3ccncc3C3NC(=O)NC3=O)c(F)c2)ccn1 (stereo not shown) [PC-50]	IC50 (recombinant human MMP-14): > 1 µM

Structure (SMILES)	IC50 (recombinant human MMP-10)	IC50 [1, 2]	IC50 [1, 3]	IC50 (recombinant human MMP-9)	IC50 (recombinant human MMP-2)	other results
O=C1NC(=O)C(c2sccc2Sc2ccc(OCc3ccccc3CO)cc2)N1 (stereo not shown) [TC5]	> 1 µM	< 0.01 µM	< 0.01 µM	> 1 µM	> 1 µM	IC50 (recombinant human MMP-8): > 1 µM; IC50 (recombinant human MMP-3): > 1 µM
